# Test results reported in patent US6548540B2, “Method of treating cancer using dithiocarbamate derivatives” (Charlotte-Mecklenburg Hospital Authority, priority 1998, dated 2003).
# Legend:
# Melanoma M1585 = assay: MTT proliferation assay, M1585 melanoma; assay type: cell-based; conditions: Homo sapiens; M1585 melanoma cells; read-out: 50% inhibitor concentration (IC50)
# Protocol: (§1) Human malignant cell lines were obtained from American Type Tissue Culture Collection (Rockville, Md.). Melanoma cells lines CRL 1585 and 1619 were cultured in RPMI 1640 (GIBCO-BRL, Life Technologies, Grand Island, N.Y.) with 10% FBS and passed with nonenzymatic Cell Dissociation Solution® (Sigma). The prostate adenocarcinoma cell line CRL 1435 (PC-3) was also cultured in RPMI 1640 with 10% FBS but passed with 0.05% trypsin and 0.53 mM EDTA. The squamous lung carcinoma NCI-H520 and the adenosquamous lung carcinoma NCI-H596 cell lines were grown in RPMI 1640 supplemented with 10% FBS, 10 mM HEPES and 1.0 mM sodium pyruvate and passed with trypsin/EDTA. The small cell lung carcinoma NCI-H82 was cultured as a suspension in RPMI 1640 with 10% FBS. All of the above were grown in a 37° C. humidified environment containing 5% CO2/air. The breast carcinoma cell line MDA-MB-453 was grown in a 37° C. humidified environment with free gas exchange with atmospheric air using Leibovitz's L-15 medium with 2 mM L-glutamine and 10% FBS and was passed with trypsin/EDTA.
# The effect of disulfiram (0.15 to 5.0 μM), diethyldithiocarbamate (DDC, 1.0 μM) or PDTC (0.625 to 5.0 μM) on proliferation of malignant cell lines was studied in cultures stimulated with 10% FBS. Cell numbers were quantitated 24-72 hours later. In some experiments disulfiram or PDTC were added immediately after cells were plated. In other experiments, cells were plated and allowed to grow for 24-72 hours before fresh media with disulfiram or PDTC was added, and cell numbers were assayed 24-72 hours later. Synergy was studied between disulfiram and N,N′-bis(2-chloroethyl-N-nitrosourea (carmustine or BCNU, 1.0 to 1,000 μM) or cisplatin (0.1 to 100 μg/ml) added to medium. The effect of metals on disulfiram was studied with 0.2 to 10 μM copper (provided as CuSO4), zinc (as ZnCl2), silver (as silver lactate) or gold (as HAuCl4.3H2O) ions added to growth medium. No pH changes occurred with addition of metal salts to culture medium. To provide a biologically relevant source of copper, in some experiments medium was supplemented with human ceruloplasmin at doses replicating low and high normal adult serum concentrations (250 and 500 μg/ml).
# Proliferation of cultured cells was quantitated using a previously reported calorimetric method based upon metabolic reduction of the soluble yellow tetrazolium dye 3-[4,5-dimethylthiazol]-2yl-2,5-diphenyl tetrazolium bromide (MTT) to its insoluble purple formazan by the action of mitochondrial succinyl dehydrogenase (See, e.g., S. J. Hirst, et al., “Quantifying proliferation of cultured human and rabbit airway smooth muscle in response to serum and platelet derived growth factor,” Am. J. Respir. Cell Mol. Biol. 7:574-581 (1992); R. Dashtaki, et al. R., supra; S. S. Brar, et al., “Requirement for reactive oxygen species in serum-induced and platelet-derived growth factor-induced growth of airway smooth muscle,” J. Biol. Chem. 274:20017-20026 (1999)). This assay empirically distinguishes between dead and living cells. For proliferation studies, cells were seeded into 24-well uncoated plastic plates (Costar) at 50,000 cells per well and cultured with respective media and mitogens. After 24-96 hours, medium was removed, cells were washed twice with 1 ml of sterile Dulbecco's modified phosphate buffered saline without Ca^2+ or Mg^2+ (DPBS), the medium was replaced with 1 ml/well fresh medium containing 100 μg/ml MTT, and plates were incubated an additional hour. MTT-containing medium was removed, 0.5 ml dimethylsulfoxide (DMSO) was added to each well, and the absorbance of the solubilized purple formazan dye was measured at 540 nm. A total of 4-6 wells were studied at each treatment condition. Preliminary studies were performed with 50-200 μg/ml MTT incubated for 15 minutes to 3 hours to determine the optimum concentration and incubation time at which the rate of conversion was linear and proportional to the number of cells present. […]
# M1619 melanoma cells = assay: MTT proliferation assay, M1619 melanoma; assay type: cell-based, human; conditions: for antiproliferative activity of gold complexed with disulfiram: M1619, compared with DS 160 nM
# Protocol: as §1
# The effect of disulfiram (0.15 to 5.0 μM), diethyldithiocarbamate (DDC, 1.0 μM) or PDTC (0.625 to 5.0 μM) on proliferation of malignant cell lines was studied in cultures stimulated with 10% FBS. Cell numbers were quantitated 24-72 hours later. In some experiments disulfiram or PDTC were added immediately after cells were plated. In other experiments, cells were plated and allowed to grow for 24-72 hours before fresh media with disulfiram or PDTC was added, and cell numbers were assayed 24-72 hours later.
# Finally, a number of dithiocarbamate effects on cells have been attributed to increasing the intracellular levels of copper ions. To further probe the role of copper in mediating cytotoxicity from disulfiram, cells were cultured with or without addition of the impermeate Cu^2+ chelator bathocuprioinedisulfonic acid (BCPS, 100 μM) added to medium to sequester Cu^2+ in the extracellular compartment. Cells were also treated 12 hours with various concentration of disulfiram (0.625 to 5.0 μM) and intracellular copper levels were measured as outlined below.
# Proliferation of cultured cells was quantitated using a previously reported calorimetric method based upon metabolic reduction of the soluble yellow tetrazolium dye 3-[4,5-dimethylthiazol]-2yl-2,5-diphenyl tetrazolium bromide (MTT) to its insoluble purple formazan by the action of mitochondrial succinyl dehydrogenase (See, e.g., S. J. Hirst, et al., “Quantifying proliferation of cultured human and rabbit airway smooth muscle in response to serum and platelet derived growth factor,” Am. J. Respir. Cell Mol. Biol. 7:574-581 (1992); R. Dashtaki, et al. R., supra; S. S. Brar, et al., “Requirement for reactive oxygen species in serum-induced and platelet-derived growth factor-induced growth of airway smooth muscle,” J. Biol. Chem. 274:20017-20026 (1999)). This assay empirically distinguishes between dead and living cells. For proliferation studies, cells were seeded into 24-well uncoated plastic plates (Costar) at 50,000 cells per well and cultured with respective media and mitogens.
# tumor cell lines = assay: Proliferation of tumor cell lines with redox, NO synthase or cyclooxygenase agents (cell line not given); assay type: cell-based, human
# Protocol: Potential redox effects of disulfiram were studied in three sets of experiments. The importance of cellular glutathione (GSH) in mediating or modulating thiocarbamate toxicity was studied by measuring levels of intracellular GSH after treatment with disulfiram. […] Also, to assess whether a nonspecific antioxidant effect of disulfiram or PDTC might account for cellular growth inhibition, we studied the effect of the potent lipophilic antioxidant probucol (1.0 to 1,000 μM) on proliferation of malignant cell lines. […] To explore the role of cyclooxygenase inhibition on tumor cell growth, cells were cultured with or without disulfiram in the presence or absence of the cyclooxygenase-1 (COX1) and cyclooxygenase-2 (COX2) inhibitors indomethacin (5μg/ml) or sodium salicylate (1 mM). To probe whether disulfiram might be inducing growth retardation by interruption or stimulation of NO production, proliferation was studied with and without disulfiram in the presence and absence of the nitric oxide […] inhibitor Nω-nitro-L-arginine added to growth medium (100 μM). […] J. Respir. Cell Mol. Biol. 7:574-581 (1992); […], et al. R., supra; S. S. Brar, et al., “Requirement for reactive oxygen species in serum-induced and platelet-derived growth factor-induced growth of airway smooth muscle,” J. Biol. Chem. 274:20017-20026 (1999)). This assay empirically distinguishes between dead and living cells. For proliferation studies, cells were seeded into 24-well uncoated plastic plates (Costar) at 50,000 cells per well and cultured with respective media and mitogens. […] MTT-containing medium was removed, 0.5 ml dimethylsulfoxide (DMSO) was added to each well, and the absorbance of the solubilized purple formazan dye was measured at 540 nm. A total of 4-6 wells were studied at each treatment condition.
molecule,measurement,setting,value
"S=C(S)N1CCCC1 [PDTC, Pyrrolidinedithiocarbamate]",IC50,Melanoma M1585,~1250 nM
"N.N.[Cl][Pt][Cl] [Cisplatin, cisplatin]",A540 of MTT Formazan,"M1619 melanoma cells; cisplatin 1 ng/ml + DMSO vehicle, added after 48 hours, additional 24 hours",1.739 ± 0.041
same,A540 of MTT Formazan,"M1619 melanoma cells; cisplatin 10 ng/ml + DMSO vehicle, added after 48 hours, additional 24 hours",1.447 ± 0.047
same,A540 of MTT Formazan,"M1619 melanoma cells; cisplatin 100 ng/ml + DMSO vehicle, added after 48 hours, additional 24 hours",1.372 ± 0.052
same,A540 of MTT Formazan,"M1619 melanoma cells; cisplatin 1,000 ng/ml + DMSO vehicle, added after 48 hours, additional 24 hours",1.381 ± 0.098
"N=C(NCCC[C@H](N)C(=O)O)N[N+](=O)[O-] [LNAME, Nω-nitro-L-arginine]",increase of cellular growth,"tumor cell lines; LNAME alone (100 μM), vs DMSO vehicle control",23.7±2.3%
CC(C)(Sc1cc(C(C)(C)C)c(O)c(C(C)(C)C)c1)Sc1cc(C(C)(C)C)c(O)c(C(C)(C)C)c1 [probucol],growth of tumor cell lines,"tumor cell lines; probucol 1.0 to 1,000 μM, data not shown",did not significantly inhibit growth
"Cc1cc(-c2ccc(S(=O)(=O)O)cc2)c2ccc3c(-c4ccc(S(=O)(=O)O)cc4)cc(C)nc3c2n1 [BCPS, bathocuproinedisulfonic acid]",effect of Cu2+ chelator on growth inhibition from disulfiram,"M1619 melanoma cells; 1.25 μM disulfiram with 50 or 100 μM BCPS, 48 hr",greatly reduces growth inhibition
dichloro(diethylthiocarbamyl)gold (II) [AuDS],antiproliferative activity of gold complexed with disulfiram,M1619 melanoma cells; 48 hr,enhanced antiproliferative activity
same,antiproliferative activity of gold complexed with disulfiram,"M1619 melanoma cells; 48 hr, listed as complex of gold with disulfiram",antiproliferative at nM concentrations
"CCN(CC)C(=S)[S-].O.O.O.[Na+] [NaDDC, sodium diethyldithiocarbamate trihydrate]",antiproliferative activity of the thiolate with DTT in medium,"M1619 melanoma cells; NaDDC 1 μM plus DTT 100 μM, 48 hours",reduced by low concentrations of DTT
[Cl-].[Cl-].[Zn+2] [zinc chloride],effect of zinc on antiproliferative potential of disulfiram,"M1619 melanoma cells; ZnCl2 with 0.625 μM disulfiram, grown 24 hours, additional 24 hr",substantially enhanced
O=NN(CCCl)C(=O)NCCCl [Carmustine],A540 of MTT Formazan,"M1619 melanoma cells; carmustine 1 μM + DMSO vehicle, 24 hours",0.197 ± 0.004
same,A540 of MTT Formazan,"M1619 melanoma cells; carmustine 10 μM + DMSO vehicle, 24 hours",0.152 ± 0.011
same,A540 of MTT Formazan,"M1619 melanoma cells; carmustine 100 μM + DMSO vehicle, 24 hours",0.020 ± 0.002
same,A540 of MTT Formazan,"M1619 melanoma cells; carmustine 1,000 μM + DMSO vehicle, 24 hours",0.003 ± 0.000
"ceruloplasmin: 132-kD glycoprotein carrying 7 copper atoms, the major copper-carrying protein in human plasma (protein, UniProt P00450 20-1065, looked up) Ceruloplasmin: KEKHYYIGIIETTWDYASDHGEKKLISVDTEHSNIYLQNGPDRIGRLYKKALYLQYTDETFRTTIEKPVWLGFLGPIIKAETGDKVYVHLKNLASRPYTFHSHGITYYKEHEGAIYPDNTTDFQRADDKVYPGEQYTYMLLATEEQSPGEGDGNCVTRIYHSHIDAPKDIASGLIGPLIICKKDSLDKEKEKHIDREFVVMFSVVDENFSWYLEDNIKTYCSEPEKVDKDNEDFQESNRMYSVNGYTFGSLPGLSMCAEDRVKWYLFGMGNEVDVHAAFFHGQALTNKNYRIDTINLFPATLFDAYMVAQNPGEWMLSCQNLNHLKAGLQAFFQVQECNKSSSKDNIRGKHVRHYYIAAEEIIWNYAPSGIDIFTKENLTAPGSDSAVFFEQGTTRIGGSYKKLVYREYTDASFTNRKERGPEEEHLGILGPVIWAEVGDTIRVTFHNKGAYPLSIEPIGVRFNKNNEGTYYSPNYNPQSRSVPPSASHVAPTETFTYEWTVPKEVGPTNADPVCLAKMYYSAVEPTKDIFTGLIGPMKICKKGSLHANGRQKDVDKEFYLFPTVFDENESLLLEDNIRMFTTAPDQVDKEDEDFQESNKMHSMNGFMYGNQPGLTMCKGDSVVWYLFSAGNEADVHGIYFSGNTYLWRGERRDTANLFPQTSLTLHMWPDTEGTFNVECLTTDHYTGGMKQKYTVNQCRRQSEDSTFYLGERTYYIAAVEVEWDYSPQREWEKELHHLQEQNVSNAFLDKGEFYIGSKYKKVVYRQYTDSTFRVPVERKAEEEHLGILGPQLHADVGDKVKIIFKNMATRPYSIHAHGVQTESSTVTPTLPGETLTYVWKIPERSGAGTEDSACIPWAYYSTVDQVKDLYSGLIGPLIVCRRPYLKVFNPRRKLEFALLFLVFDENESWYLDDNIKTYSDHPEKVNKDDEEFIESNKMHAINGRMFGNLQGLTMHVGDEVNWYLMGMGNEIDLHTVHFHGHSFQYKHRGVYSSDVFDIFPGTYQTLEMFPRTPGIWLLHCHVTDHIHAGMETTYTVLQNEDTKSG",effect of ceruloplasmin on antiproliferative activity of disulfiram,"M1619 melanoma cells; ceruloplasmin 500 μg/ml with disulfiram, 24 hours",enhance the antiproliferative activity of disulfiram
